In US20220332701A1, “HETEROCYCLIC COMPOUNDS AS BCR-ABL INHIBITORS” (ASCENTAGE PHARMA (SUZHOU) CO., LTD., priority 2019, published 2022):

Columns and labels:
BaF3(T315I) = BaF3(T315I) (Homo sapiens, UniProt P00519, T315I, cells depend on it); experiment: WST (CCK-8) anti-proliferation assay, BaF3 T315I cells; conditions: read-out: BaF3(T315I); anti-proliferative IC50, 72 h treatment, CCK-8, BaF3 T315I
Procedure: (§1) The anti-proliferative effect of representative Compounds of the Disclosure was determined by a water-soluble tetrazolium (WST)-based assay using Cell Counting Kit-8 (CCK-8). Cells were seeded in 96-well plates and treated with different concentrations of test articles for 72 h. Each treatment was tested in triplicates. Briefly, a series of 9 concentrations were chosen for each test article and added at 100 μl/well into a 96-well plate. Each concentration was tested in triplicates. 100 μl of diluent was added into 3-6 wells in the same plate for cell control group, and another set of 3-6 wells was used as a blank control.
(§2) In each well, 100 μl of cell suspension (containing optimal cell numbers, which creates approximately 100% confluence of cells in control wells based on by the absorbance (OD) value) was dispensed into the same 96-well plate except for the blank well. The plate was then cultured at 37° C. in an incubator in an atmosphere with 5% CO2 for 72 h. At the end of treatments, 20 μl/well of CCK-8 reagent was directly added to each wells. The plate was then incubated at 37° C. in an incubator in an atmosphere with 5% CO2 for 2-4 hour.
(§3) The cells viability was calculated using the mean OD value of triplicated wells following the equation below: (OD sample−OD blank)/(OD cell control−OD blank)×100 IC50 values were calculated with Graphpad Prism 6.0 software using nonlinear regression (curve fitting) type data analysis.

BaF3(WT) = BaF3(WT) (Homo sapiens, UniProt P00519); experiment: WST (CCK-8) anti-proliferation assay, BaF3 WT cells; conditions: read-out: BaF3(WT); anti-proliferative IC50, 72 h treatment, CCK-8, BaF3 WT
Procedure: as §1, §2, §3

SMILES | GI50 (BaF3(T315I)) | GI50 (BaF3(WT))
CC(C)N1CCCCc2cc(C(=O)Nc3ccc(OC(F)(F)Cl)cc3)cc(-c3ccn[nH]3)c21 [X-1, N-(4-(chlorodifluoromethoxy)phenyl)-1-isopropyl-9-(1H-pyrazol-5-yl)-2,3,4,5-tetrahydro-1H-benzo[b]azepine-7-carboxamide] | 1290 nM | 67 nM
CC(C)N1c2c(cc(C(=O)Nc3ccc(OC(F)(F)Cl)cc3)cc2-c2ccn[nH]2)CC1C(=O)N1CCOCC1 (centres unmarked) [VII-25, N-(4-(chlorodifluoromethoxy)phenyl)-1-isopropyl-2-(morpholine-4-carbonyl)-7-(1H-pyrazol-5-yl)indoline-5-carboxamide] | 243 nM | 58 nM
CC(C)N1CC(CN(C)C)c2cc(C(=O)Nc3ccc(OC(F)(F)Cl)cc3)cc(-c3ccn[nH]3)c21 (centres unmarked) [VII-27, N-(4-(chlorodifluoromethoxy)phenyl)-3-((dimethylamino)methyl)-1-isopropyl-7-(1H-pyrazol-5-yl)indoline-5-carboxamide] | 366 nM | 85 nM
CC(C)N1c2c(cc(C(=O)Nc3ccc(OC(F)(F)Cl)cc3)cc2-c2cncnc2)CC1C(=O)NCCS(C)(=O)=O (centres unmarked) [VII-22, N5-(4-(chlorodifluoromethoxy)phenyl)-1-isopropyl-N2-(2-(methylsulfonyl)ethyl)-7-(pyrimidin-5-yl)indoline-2,5-dicarboxamide] | 1350 nM | 145 nM
CC(C)N1CC(C)(CO)c2cc(C(=O)Nc3ccc(OC(F)(F)Cl)cc3)cc(-c3ccn[nH]3)c21 (centres unmarked) [VII-41, N-(4-(chlorodifluoromethoxy)phenyl)-3-(hydroxymethyl)-1-isopropyl-3-methyl-7-(1H-pyrazol-5-yl)indoline-5-carboxamide] | 168 nM | 46 nM
CC(C)N1c2c(cc(C(=O)Nc3ccc(OC(F)(F)Cl)cc3)cc2-c2cncnc2)CC1C(=O)O (centres unmarked) [VII-21, 5-((4-(chlorodifluoromethoxy)phenyl)carbamoyl)-1-isopropyl-7-(pyrimidin-5-yl)indoline-2-carboxylic acid] | 1610 nM | 158 nM
CC(C)N1CC(C)(C)c2cc(C(=O)Nc3ccc(OC(F)(F)Cl)cc3)cc(-c3ccn[nH]3)c21 [VII-40, N-(4-(chlorodifluoromethoxy)phenyl)-1-isopropyl-3,3-dimethyl-7-(1H-pyrazol-5-yl)indoline-5-carboxamide] | 256 nM | 20 nM
CC(C)N1c2c(cc(C(=O)Nc3ccc(OC(F)(F)Cl)cc3)cc2-c2ccn[nH]2)CC1C(=O)N(C)C (centres unmarked) [VII-26, N5-(4-(chlorodifluoromethoxy)phenyl)-1-isopropyl-N2,N2-dimethyl-7-(1H-pyrazol-5-yl)indoline-2,5-dicarboxamide] | 199 nM | 39 nM
Cc1ccc(-c2cc(C(=O)Nc3ccc(OC(F)(F)Cl)cc3)cc3c2C(C)(C)N(C)C3=O)o1 [IV-2, N-(4-(chlorodifluoromethoxy)phenyl)-1,1,2-trimethyl-7-(5-methylfuran-2-yl)-3-oxoisoindoline-5-carboxamide] | 3340 nM | 399 nM
CC(=O)N(C)CC1Cc2cc(C(=O)Nc3ccc(OC(F)(F)Cl)cc3)cc(-c3ccn[nH]3)c2N1C(C)C (centres unmarked) [VII-18, N-(4-(chlorodifluoromethoxy)phenyl)-1-isopropyl-2-((N-methylacetamido)methyl)-7-(1H-pyrazol-5-yl)indoline-5-carboxamide] | 484 nM | 124 nM
CC(C)N1c2c(cc(C(=O)Nc3ccc(OC(F)(F)Cl)cc3)cc2-c2ccn[nH]2)CC1CO (centres unmarked) [VII-34, N-(4-(chlorodifluoromethoxy)phenyl)-2-(hydroxymethyl)-1-isopropyl-7-(1H-pyrazol-5-yl)indoline-5-carboxamide] | 648 nM | 45 nM
CN1CCN(CCN2C(=O)c3cc(C(=O)Nc4ccc(OC(F)(F)Cl)cc4)cc(-c4ccn[nH]4)c3C2(C)C)CC1 [IV-6, N-(4-(chlorodifluoromethoxy)phenyl)-1,1-dimethyl-2-(2-(4-methylpiperazin-1-yl)ethyl)-3-oxo-7-(1H-pyrazol-5-yl)isoindoline-5-carboxamide] | 1570 nM | 501 nM
CC(=O)N1CC(C)(C)c2c(-c3ccn[nH]3)cc(C(=O)Nc3ccc(OC(F)(F)Cl)cc3)cc21 [III-4, 1-acetyl-N-(4-(chlorodifluoromethoxy)phenyl)-3,3-dimethyl-4-(1H-pyrazol-5-yl)indoline-6-carboxamide] | 176 nM | 22 nM
